Patent US10851082B2, “Substituted aromatic n-heterocyclic compounds as inhibitors of mitogen-activated protein kinase interacting kinase 1 (MNK1) and 2 (MNK2)” (Northwestern University, priority 2015, dated 2020)
Like-named read-outs stand apart in the source and are kept apart here.

Experiments:
Mnk2 = Mnk2 (Homo sapiens (Human), UniProt Q9HBH9); test: Mnk2 kinase inhibition, ADP-Glo ADP monitoring assay; format: biochemical
Mnk1 = Mnk1 (Homo sapiens (Human), UniProt Q9BUB5); test: Mnk1 kinase inhibition, ADP-Glo ADP monitoring assay; format: biochemical
Chain of Mnk1 (Q9BUB5 whole entry): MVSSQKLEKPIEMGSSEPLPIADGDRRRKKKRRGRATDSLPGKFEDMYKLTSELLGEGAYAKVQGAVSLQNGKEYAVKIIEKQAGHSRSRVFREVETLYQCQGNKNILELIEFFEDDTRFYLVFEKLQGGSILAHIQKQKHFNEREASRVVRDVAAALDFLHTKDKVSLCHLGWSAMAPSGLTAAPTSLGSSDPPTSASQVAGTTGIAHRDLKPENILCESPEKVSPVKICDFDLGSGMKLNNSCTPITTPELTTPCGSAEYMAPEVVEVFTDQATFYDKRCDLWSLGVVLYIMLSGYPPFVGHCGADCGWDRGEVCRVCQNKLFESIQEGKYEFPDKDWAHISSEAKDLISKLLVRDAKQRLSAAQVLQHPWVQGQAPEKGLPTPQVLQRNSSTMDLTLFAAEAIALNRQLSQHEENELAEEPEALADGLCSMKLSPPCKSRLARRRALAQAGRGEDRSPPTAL

[1] = ADP-Glo kinase assay, read-out: Mnk2 inhibition IC50 (+,++,+++)
[2] = read-out: Mnk1 inhibition IC50 (+,++,+++)
[3] = ADP-Glo kinase assay, read-out: Mnk2 IC50

Chain of Mnk2 (Q9HBH9 whole entry): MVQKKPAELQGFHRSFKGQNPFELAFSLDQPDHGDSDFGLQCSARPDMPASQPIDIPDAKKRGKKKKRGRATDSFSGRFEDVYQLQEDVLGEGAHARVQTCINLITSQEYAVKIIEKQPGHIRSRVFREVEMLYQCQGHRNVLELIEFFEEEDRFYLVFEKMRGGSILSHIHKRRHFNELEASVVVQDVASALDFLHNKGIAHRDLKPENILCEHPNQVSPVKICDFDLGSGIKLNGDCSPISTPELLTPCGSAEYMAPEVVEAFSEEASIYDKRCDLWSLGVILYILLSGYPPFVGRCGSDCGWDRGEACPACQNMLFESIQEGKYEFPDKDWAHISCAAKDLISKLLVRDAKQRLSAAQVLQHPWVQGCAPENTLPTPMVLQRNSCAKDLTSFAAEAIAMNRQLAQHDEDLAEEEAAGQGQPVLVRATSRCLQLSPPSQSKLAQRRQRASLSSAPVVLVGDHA

Row | Compound | IC50 (Mnk2; [1]) [nM] | IC50 (Mnk1; [2]) [nM] | IC50 (Mnk1; read-out: Mnk1 IC50) [nM] | IC50 (Mnk2; [3]) [nM] | other results
1 | O=C(Nc1ccccc1)Nc1nccc(-n2cnc3ccccc32)n1 [NUCC-0176351] | – | – | – | – | Mnk2 IC50 (Mnk2; ADP-Glo kinase assay): no activity; Mnk1 IC50 (Mnk1): no activity
2 | N#Cc1cnc(Oc2ccc(Cl)cc2)nc1-n1cnc2ccccc21 [NUCC-0200787] | < 1000 | < 1000 | – | – | –
3 | Clc1cnc(Oc2cccnc2)nc1-n1cnc2ccccc21 [NUCC-0200810, 1-(5-chloro-2-(pyridin-3-yloxy)pyrimidin-4-yl)-1H-benzo[d]imidazole] | – | – | – | – | Mnk2 inhibition IC50 (+,++,+++) (Mnk2; ADP-Glo kinase assay): no activity; Mnk1 inhibition IC50 (+,++,+++) (Mnk1): no activity
4 | OC1CCN(c2ncc(Cl)c(-n3cnc4ccccc43)n2)CC1 [NUCC-0200781] | < 1000 | – | – | – | –
5 | Nc1cc(-n2cnc3ccccc32)nc(NCc2cccnc2)n1 [NUCC-0196223] | – | – | – | – | IC50 (Mnk2; ADP-Glo kinase assay, unit inferred, read-out: Mnk2 IC50): 1800 nM; IC50 (Mnk1; unit inferred, read-out: Mnk1 IC50): > 10000 nM
6 | Clc1cnc(CCc2ccccn2)nc1-n1cnc2ccccc21 [NUCC-0201706, 1-(5-chloro-2-(2-(pyridin-2-yl)ethyl)pyrimidin-4-yl)-1H-benzo[d]imidazole] | – | 1000 to 10000 | – | – | IC50 (Mnk2): 1000 to 10000 nM
7 | c1cc(CNc2nccc(-c3cnn(C4CCOCC4)c3)n2)ccn1 [NUCC-0060959] | – | – | 90000 | – | –
8 | N#Cc1cnc(OCc2cccnc2)nc1-n1cnc2ccccc21 [NUCC-0200903] | < 1000 | < 1000 | – | – | –
9 | NC1CC(Oc2ncc(-c3ccccc3OC(F)(F)F)c(-n3cnc4ccccc43)n2)C1 (centres unmarked) [NUCC-0201898, 3-((4-(1H-benzo[d]imidazol-1-yl)-5-(2-(trifluoromethoxy)phenyl)pyrimidin-2-yl)oxy)cyclobutan-1-amine] | < 1000 | – | – | – | –
10 | c1ccc2c(c1)CCN2c1ccnc(NCCc2ccncc2)n1 [NUCC-0176233] | – | – | 8500 | 4700 | –
11 | OC1Cc2ccccc2C1Nc1nccc(-n2cnc3ccccc32)n1 (centres unmarked) [NUCC-0176369] | – | – | – | – | Mnk2 IC50 (Mnk2; ADP-Glo kinase assay): no activity; Mnk1 IC50 (Mnk1): no activity
12 | CCCn1ncc(-c2ccnc(NCc3nccn3CC)n2)c1C [NUCC-0054147] | – | – | 6000 | 16000 | –
13 | NC1CC(Oc2ncc(C(F)(F)F)c(-n3cnc4ccccc43)n2)C1 (centres unmarked) [NUCC-0201663] | – | < 1000 | – | – | IC50 (Mnk2): 1000 to 10000 nM
14 | Brc1cnc(OC2CCNC2)nc1-n1cnc2ccccc21 (centres unmarked) [NUCC-0201895] | < 1000 | < 1000 | – | – | –
15 | CC1=C(Oc2ncc(Cl)c(-n3cnc4ccccc43)n2)C(=O)C(C)O1 (centres unmarked) [NUCC-0201018] | – | 1000 to 10000 | – | – | IC50 (Mnk2): 1000 to 10000 nM
16 | OC1CCCC1Nc1nccc(-n2cnc3ccccc32)n1 (centres unmarked) [NUCC-0176147] | – | – | 450 | 82 | –
17 | c1ccc2c(c1)cnn2-c1nccc(NCCc2ccncc2)n1 [NUCC-0176347] | – | – | 8100 | 5600 | –
18 | COC1CCC(Nc2nccc(-n3cnc4ccccc43)n2)CC1 (centres unmarked) [NUCC-0176167] | – | – | 300 | 60 | –
19 | Fc1cccc(CCOc2ncc(Cl)c(-n3cnc4ccccc43)n2)c1 [NUCC-0201906] | < 1000 | < 1000 | – | – | –

Row | Compound | IC50 (Mnk2; [1]) [nM] | IC50 (Mnk1; [2]) [nM] | IC50 (Mnk1; read-out: Mnk1 IC50) [nM] | IC50 (Mnk2; [3]) [nM] | other results
20 | Fc1cnc(NCCc2ccncc2)nc1-n1ccc2ccccc21 [NUCC-0176283] | – | – | 8700 | 10000 | –
21 | N#Cc1cnc(NCCCc2ccncc2)nc1-n1cnc2ccccc21 [NUCC-0200913] | > 10000 | > 10000 | – | – | –
22 | CC(O)CNc1ccnc(-n2cnc3ccccc32)n1 (centres unmarked) [NUCC-0176348] | – | – | 710 | 130 | –
23 | NC(=O)CNc1ncc(Cl)c(-n2cnc3ccccc32)n1 [NUCC-0176359] | – | – | 1500 | 320 | –
24 | COc1cnc(NCCc2ccncc2)nc1-n1cnc2ccccc21 [NUCC-0175698] | – | – | 5000 | 1800 | –
25 | c1cc2c(cn1)ncn2-c1ccnc(NC2CCOC2)n1 (centres unmarked) [NUCC-0176152] | – | – | 1600 | 1300 | –
26 | Cn1cc(-c2ccnc(NCCN3CCOCC3)n2)cn1 [NUCC-0060894] | – | – | 4000 | – | –
27 | CN(C)CCNc1nccc(-n2cnc3ccccc32)n1 [NUCC-0125582] | – | – | 500 | 48 | –
28 | COc1ccc2c(c1)ncn2-c1nc(NCCc2ccncc2)ncc1Cl [NUCC-0200910] | < 1000 | > 10000 | – | – | –
29 | NC(=O)c1ccc(-c2cnc(OC3CCNC3)nc2-n2cnc3ccccc32)cc1 (centres unmarked) [NUCC-0201903] | < 1000 | < 1000 | – | – | –
30 | NC1CCN(c2ncc(Cl)c(-n3cnc4ccccc43)n2)C1 (centres unmarked) [NUCC-0201006] | – | 1000 to 10000 | – | – | IC50 (Mnk2): 1000 to 10000 nM
31 | N#Cc1cnc(NC2C3CC2C3)nc1-n1cnc2ccccc21 (centres unmarked) [NUCC-0201137, 4-(1H-benzo[d]imidazol-1-yl)-2-(bicyclo[1.1.1]pentan-2-ylamino)pyrimidine-5-carbonitrile] | < 1000 | < 1000 | – | – | –
32 | c1ccc2c(c1)ccn2-c1ccnc(NCCc2cnc[nH]2)n1 [NUCC-0060955] | – | – | 16000 | 5000 | –
33 | c1ccc2c(c1)ncn2-c1ccnc(NCCN2CCOCC2)n1 [NUCC-0060956] | – | – | 1000 | – | –
34 | c1ccc2c(c1)ncn2-c1ccnc(OC2CCNC2)n1 (centres unmarked) [NUCC-0201896] | < 1000 | < 1000 | – | – | –
35 | N#Cc1ccc(CCNc2ncc(Cl)c(-n3cnc4ccccc43)n2)cc1 [NUCC-0200785] | < 1000 | > 10000 | – | – | –
36 | OCCNc1ncc(Cl)c(-n2cnc3ccccc32)n1 [NUCC-0176358] | – | – | 450 | 130 | –
37 | O=C1CCCN1CCCNc1ccnc(-n2cnc3ccccc32)n1 [NUCC-0176345] | – | – | 10000 | 2600 | –
38 | OC1CCC(Nc2nccc(-n3cnc4ccccc43)n2)CC1 (centres unmarked) [NUCC-0176166] | – | – | 390 | 63 | –
